Measured values: patent publication US10519151B2, “Substituted [1,2,4]triazolo[4,3-A]pyridines, their preparation and their use as pharmaceuticals” (NEOMED Institute, priority 2016, dated 2019)

The compounds below were run on human C-Myc gene transcription in MV-4-11 cells (assay: Transcription of human C-Myc in human leukemic MV-4-11 cells (QuantiGene 2.0 assay)). Conditions: MV4-11, 4 hours treatment, C-Myc mRNA by QuantiGene 2.0, read-out: IC50 (inhibition of C-Myc transcription).
Format: cell-based
Procedure: Transcription of Human C-Myc in Human Leukemic MV-4-11 Cells
The effect of compounds on transcription of human C-Myc gene is monitored in human B-myelomonocytic leukemia cell line MV-4-11 (from American Type Culture Collection (ATCC), Manassas, Va., USA) using QuantiGene 2.0 assay kit (Affymetrix, Santa Clara, Calif., USA).
Typically, 8,000 MV-4-11 cells are plated in sterile 96-well plates (Costar #3598 from Fisher Scientific Canada, Ottawa, Ontario, Canada) in Iscove's medium supplemented with 10% fetal bovine serum, glutamine (2 mM), and penicillin (100 I.U.) and streptomycin (100 μg/mL) (all from Wisent Inc., St. Bruno, Quebec, Canada). Compounds are dissolved in DMSO at 30 mM. A series of 1:3 dilutions are first made in DMSO, and further […] dilutions are made in serum-containing cell culture media. The final concentration of DMSO is 0.1% in cell culture media. After cells are treated with various concentrations of test compound for 4 hours, cells are lysed using Quantigene 2.0 sample processing kit (#QS0100). C-Myc mRNA is detected using a QuantiGene 2.0 assay kit (#QS0009) with gene-specific probe to human C-Myc (#SA-50182) following the manufacturer's recommendations. Luminescence signals are read on Flexstation II microplate reader (Molecular Devices, Sunnyvale, Calif., USA).

| SMILES | IC50 |
| --- | --- |
| Cc1cc(-c2ccc3nnc(Cc4cc(F)cc(F)c4)n3c2)cn(C)c1=O [Compound 9, 5-[3-[(3,5-difluorophenyl)methyl]-[1,2,4]triazolo[4,3-a]pyridin-6-yl]-1,3-dimethyl-pyridin-2-one] | 183 nM |
| Cc1cc(-c2ccc3nnc(C4(c5ccc(Cl)cc5)CC4)n3c2)cn(C)c1=O [Compound 15, 5-[3-[1-(4-chlorophenyl)cyclopropyl]-[1,2,4]triazolo[4,3-a]pyridin-6-yl]-1,3-dimethyl-pyridin-2-one] | 250 nM |
| Cc1cc(-c2ccc3nnc(C(C)(C)c4ccccc4)n3c2)cn(C)c1=O [Compound 27, 1,3-dimethyl-5-[3-(1-methyl-1-phenyl-ethyl)-[1,2,4]triazolo[4,3-a]-pyridin-6-yl]pyridin-2-one] | 227 nM |
| Cc1cc(-c2ccc3nnc(Cc4ccc(Cl)cc4)n3c2)cn(C)c1=O [Compound 4, 5-[3-[(4-chlorophenyl)methyl]-[1,2,4]triazolo[4,3-a]pyridin-6-yl]-1,3-dimethyl-pyridin-2-one] | 156 nM |
| Cc1cc(-c2ccc3nnc(Cc4ccccc4)n3c2)cn(C)c1=O [Compound 1, 5-(3-benzyl-[1,2,4]triazolo[4,3-a]pyridin-6-yl)-1,3-dimethyl-pyridin-2-one] | 253 nM |
| Cc1cc(-c2ccc3nnc(CC4CCCCC4)n3c2)cn(C)c1=O [Compound 8, 5-[3-(cyclohexylmethyl)-[1,2,4]triazolo[4,3-a]pyridin-6-yl]-1,3-dimethyl-pyridin-2-one] | 158 nM |
| Cc1cc(-c2ccc3nnc(Cc4cccc(C(F)(F)F)c4)n3c2)cn(C)c1=O [Compound 5, 1,3-dimethyl-5-[3-[[3-(trifluoromethyl)phenyl]methyl]-[1,2,4]triazolo[4,3-a]pyridin-6-yl]pyridin-2-one] | 146 nM |
| Cc1cc(-c2ccc3nnc(CCc4ccccc4)n3c2)cn(C)c1=O [Compound 26, 1,3-dimethyl-5-[3-(2-phenylethyl)-[1,2,4]triazolo[4,3-a]pyridin-6-yl]pyridin-2-one] | 835 nM |
| Cc1cc(-c2ccc3nnc(CC4CCOCC4)n3c2)cn(C)c1=O [Compound 2] | 2340 nM |
| Cc1ccc(C2(c3nnc4ccc(-c5cc(C)c(=O)n(C)c5)cn34)CC2)cc1 [Compound 16, 1,3-dimethyl-5-[3-[1-(p-tolyl)cyclopropyl]-[1,2,4]triazolo[4,3-a]pyridin-6-yl]pyridin-2-one] | 226 nM |
| Cc1cc(-c2ccc3nnc(Cc4ccc(F)cc4)n3c2)cn(C)c1=O [Compound 3, 5-[3-[(4-fluorophenyl)methyl]-[1,2,4]triazolo[4,3-a]pyridin-6-yl]-1,3-dimethyl-pyridin-2-one] | 495 nM |
| Cc1cc(-c2ccc3nnc(C(C)(C)c4ccc(Cl)cc4)n3c2)cn(C)c1=O [Compound 17, 5-[3-[1-(4-chlorophenyl)-1-methyl-ethyl]-[1,2,4]triazolo[4,3-a]pyridin-6-yl]-1,3-dimethyl-pyridin-2-one] | 590 nM |
| Cc1cc(-c2ccc3nnc(Cc4ccccc4F)n3c2)cn(C)c1=O [Compound 6, 5-[3-[(2-fluorophenyl)methyl]-[1,2,4]triazolo[4,3-a]pyridin-6-yl]-1,3-dimethyl-pyridin-2-one] | 461 nM |
| Cc1cc(-c2ccc3nnc(C4(c5ccc(Cl)cc5)CCC4)n3c2)cn(C)c1=O [Compound 18, 5-[3-[1-(4-chlorophenyl)cyclobutyl]-[1,2,4]triazolo[4,3-a]pyridin-6-yl]-1,3-dimethyl-pyridin-2-one] | 563 nM |
| Cc1cc(-c2ccc3nnc(Cc4cccc(F)c4)n3c2)cn(C)c1=O [Compound 13, 5-[3-[(3-fluorophenyl)methyl]-[1,2,4]triazolo[4,3-a]pyridin-6-yl]-1,3-dimethyl-pyridin-2-one] | 269 nM |
| Cc1cc(-c2ccc3nnc(C4(c5cccc(F)c5)CC4)n3c2)cn(C)c1=O [Compound 21, 5-[3-[1-(3-fluorophenyl)cyclopropyl]-[1,2,4]triazolo[4,3-a]pyridin-6-yl]-1,3-dimethyl-pyridin-2-one] | 158 nM |
| Cc1cc(-c2ccc3nnc(Cc4ccc(C(F)(F)F)cc4)n3c2)cn(C)c1=O [Compound 10, 1,3-dimethyl-5-[3-[[4-(trifluoromethyl)phenyl]methyl][1,2,4]triazolo[4,3-a]pyridin-6-yl]pyridin-2-one] | 484 nM |

These reach a lower IC50. Values come first.

| IC50 | SMILES |
| --- | --- |
| 100 nM | Cc1cc(-c2ccc3nnc([C@H](C)c4ccccc4)n3c2)cn(C)c1=O [Compound 12, 1,3-dimethyl-5-[3-[(1R)-1-phenylethyl]-[1,2,4]triazolo[4,3-a]pyridin-6-yl]pyridin-2-one] |
| 90 nM | Cc1cc(-c2ccc3nnc(C4(c5ccccc5)CC4)n3c2)cn(C)c1=O [Compound 11, 1,3-dimethyl-5-[3-(1-phenylcyclopropyl)-[1,2,4]triazolo[4,3-a]pyridin-6-yl]pyridin-2-one] |
| 90 nM | Cc1cc(-c2ccc3nnc(C(C)(C)c4cccc(Cl)c4)n3c2)cn(C)c1=O [Compound 24, 5-[3-[1-(3-chlorophenyl)-1-methyl-ethyl]-[1,2,4]triazolo[4,3-a]pyridin-6-yl]-1,3-dimethyl-pyridin-2-one] |
| 89 nM | Cc1cc(-c2ccc3nnc(C4(c5cccc(Cl)c5)CC4)n3c2)cn(C)c1=O [Compound 14, 5-[3-[1-(3-chlorophenyl)cyclopropyl]-[1,2,4]triazolo[4,3-a]pyridin-6-yl]-1,3-dimethyl-pyridin-2-one] |
| 88 nM | Cc1cccc(C2(c3nnc4ccc(-c5cc(C)c(=O)n(C)c5)cn34)CC2)c1 [Compound 19, 1,3-dimethyl-5-[3-[1-(m-tolyl)cyclopropyl]-[1,2,4]triazolo[4,3-a]pyridin-6-yl]pyridin-2-one] |
| 85 nM | Cc1cc(-c2ccc3nnc(C4(c5ccccc5)CCCC4)n3c2)cn(C)c1=O [Compound 23, 1,3-dimethyl-5-[3-(1-phenylcyclopentyl)-[1,2,4]triazolo[4,3-a]pyridin-6-yl]pyridin-2-one] |
| 85 nM | Cc1cc(-c2ccc3nnc([C@@H](C)c4ccccc4)n3c2)cn(C)c1=O [Compound 7, 1,3-dimethyl-5-[3-[(1 S)-1-phenylethyl]-[1,2,4]triazolo[4,3-a]pyridin-6-yl]pyridin-2-one] |
| 74 nM | Cc1cc(-c2ccc3nnc(C4(c5ccccc5)CCC4)n3c2)cn(C)c1=O [Compound 22, 1,3-dimethyl-5-[3-(1-phenylcyclobutyl)-[1,2,4]triazolo[4,3-a]pyridin-6-yl]pyridin-2-one] |
| 61 nM | Cc1cc(-c2ccc3nnc(C4(c5cccc(C(F)(F)F)c5)CC4)n3c2)cn(C)c1=O [Compound 20, 1,3-dimethyl-5-[3-[1-[3-(trifluoromethyl)phenyl]cyclopropyl][1,2,4]-triazolo[4,3-a]pyridin-6-yl]pyridin-2-one] |
| 54 nM | Cc1cc(-c2ccc3nnc(C4(c5ccccc5)CCCCC4)n3c2)cn(C)c1=O [Compound 25, 1,3-dimethyl-5-[3-(1-phenylcyclohexyl)-[1,2,4]triazolo[4,3-a]pyridin-6-yl]pyridin-2-one] |
